From PMC10424186 (Journal of Medicinal Chemistry, 2023)
“And” between values parts separate entries of the source, which are not always exact repeats. Identical values can stand only once. Like-named read-outs stand apart in the source and are kept apart here.

Legend:
[1] = target: human JMJD5 (Homo sapiens, UniProt Q8N371); assay: SPE-MS JMJD5 inhibition assay (hydroxylation of RPS6 128–148 peptide); type: biochemical
Description: Synthetic peptides with sequences based on reported human 2OG oxygenase substrates were used in SPE-MS inhibition assays: RPS6, residues 128–148, for JMJD5;[42] HIF-α CODD, residues 558–574, for PHD2;[70] HIF-α CAD, residues 788–822, for FIH;[70] H3_1-15K9me3, histone 3 (H3), residues 1–15 with K9 of H3-bearing three methyl groups at the N^ε-position, K4 of H3 substituted by an alanine residue, and K14 of H3 by an isoleucine residue,[73] for KDM4E; and RPL27A, residues 31–49, for RIOX2 (Mina53).[44] All peptides were prepared as C-terminal amides by GL Biochem (Shanghai) Ltd. A synthetic thioether-linked cyclic peptide, hFX-CP101–119,[48] which was designed based on the reported cellular AspH substrate human coagulation factor X (hFX, residues 101–119; C101 was substituted for a D-alanine residue and C112 for a serine residue),[79] was used as AspH substrate; it was prepared with a C-terminal amide according to literature protocols.[80]
Cosubstrate/cofactor stock solutions [L-ascorbic acid/LAA: 50 mM in MQ-grade water; 2-oxoglutarate/2OG: 10 mM in MQ-grade water; ammonium iron(II) sulfate hexahydrate/FAS/(NH4)2Fe(SO4)2·6H2O: 400 mM in 20 mM HCl diluted to 1 mM in MQ-grade water] were freshly prepared from commercial solids (Sigma-Aldrich) on the day the assays were performed. The JMJD5,[42] PHD2,[70] FIH,[70] KDM4E,[72],[73] RIOX2,[44] and AspH[45] SPE-MS inhibition assays were performed as described in the cited literature, using isolated recombinant human enzymes (His6-thioredoxin-JMJD5,[42] His6-PHD2_181–426,[70] His6-FIH,[70] His6-KDM4E,[72],[73] His6-RIOX2_26–465,[87],[88] and His6-AspH315–758[48],[80]) and synthetic peptide substrates (RPS6_128–148 for JMJD5;[42] HIF-α CODD558–574 for PHD2;[70] HIF-α CAD788–822 for FIH;[70] H3_1–15K9me3 for KDM4E;[73] RPL27A31–49 for RIOX2;[44],[71] and hFX-CP101–119 for AspH;[45],[48] see above). For JMJD5, PHD2, FIH, RIOX2, and AspH, substrate hydroxylation was monitored (+16 Da mass shift), while for the KDM4E substrate, demethylation was monitored (−14 Da mass shift) by SPE-MS.

[2] = target: T1, KDM4E (Homo sapiens, UniProt B2RXH2); conditions: Supporting Table S1; reported FDH-coupled spectrophotometric assay; ref SI 17; cited from earlier work
T1 construct: made in house; host or cells: Escherichia coli
T1 sequence (B2RXH2 1-506): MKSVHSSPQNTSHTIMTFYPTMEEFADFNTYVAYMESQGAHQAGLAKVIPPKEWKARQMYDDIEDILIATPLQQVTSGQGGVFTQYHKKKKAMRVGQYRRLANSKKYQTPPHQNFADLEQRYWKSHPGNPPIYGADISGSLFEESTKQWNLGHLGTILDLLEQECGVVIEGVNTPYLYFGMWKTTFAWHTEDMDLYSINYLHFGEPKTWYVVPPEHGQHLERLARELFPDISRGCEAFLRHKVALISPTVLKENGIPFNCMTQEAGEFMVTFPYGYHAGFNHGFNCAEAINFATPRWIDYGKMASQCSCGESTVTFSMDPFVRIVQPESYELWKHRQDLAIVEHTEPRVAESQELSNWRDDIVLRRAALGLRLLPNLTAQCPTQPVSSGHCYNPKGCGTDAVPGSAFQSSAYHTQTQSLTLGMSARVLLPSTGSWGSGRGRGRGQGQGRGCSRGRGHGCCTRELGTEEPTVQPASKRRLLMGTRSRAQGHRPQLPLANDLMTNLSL

[3] = target: T2, PHD2 (Homo sapiens, UniProt Q9GZT9); assay: SPE-MS PHD2 inhibition assay (HIF-1α CODD hydroxylation); type: biochemical; conditions: Table 2; PHD2 181–426 […], 5.0 μM HIF-1α CODD; n = 2, mean ± SD
T2 construct: His6-PHD2_181–426; made in house; host or cells: Escherichia coli
T2 sequence (Q9GZT9 181-426): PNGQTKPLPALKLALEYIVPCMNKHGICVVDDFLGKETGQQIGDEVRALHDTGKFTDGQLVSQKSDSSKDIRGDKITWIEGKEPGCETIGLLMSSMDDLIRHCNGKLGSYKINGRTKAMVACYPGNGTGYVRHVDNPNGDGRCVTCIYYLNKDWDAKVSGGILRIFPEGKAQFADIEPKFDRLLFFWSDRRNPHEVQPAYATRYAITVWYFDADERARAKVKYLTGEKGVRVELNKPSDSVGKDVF
Protocol: (§1) H3_1-15K9me3, histone 3 (H3), residues 1–15 with K9 of H3-bearing three methyl groups at the N^ε-position, K4 of H3 substituted by an alanine residue, and K14 of H3 by an isoleucine residue,[73] for KDM4E; and RPL27A, residues 31–49, for RIOX2 (Mina53).[44]
(§2) Cosubstrate/cofactor stock solutions [L-ascorbic acid/LAA: 50 mM in MQ-grade water; 2-oxoglutarate/2OG: 10 mM in MQ-grade water; ammonium iron(II) sulfate hexahydrate/FAS/(NH4)2Fe(SO4)2·6H2O: 400 mM in 20 mM HCl diluted to 1 mM in MQ-grade water] were freshly prepared from commercial solids (Sigma-Aldrich) on the day the assays were performed. The JMJD5,[42] PHD2,[70] FIH,[70] KDM4E,[72],[73] RIOX2,[44] and AspH[45] […] For JMJD5, PHD2, FIH, RIOX2, and AspH, substrate hydroxylation was monitored (+16 Da mass shift), while for the KDM4E substrate, demethylation was monitored (−14 Da mass shift) by SPE-MS.

[4] = target: T3, AspH (Homo sapiens, UniProt Q12797); assay: SPE-MS AspH inhibition assay (hFX-CP101–119 hydroxylation); type: biochemical; conditions: Table 2; His6-AspH315–758 0.05 μM, 1.0 μM hFX-CP101–119; n = 2, mean ± SD
T3 construct: N-terminally His6-tagged AspH315–758; made in house; host or cells: Escherichia coli
T3 sequence (Q12797 315-758): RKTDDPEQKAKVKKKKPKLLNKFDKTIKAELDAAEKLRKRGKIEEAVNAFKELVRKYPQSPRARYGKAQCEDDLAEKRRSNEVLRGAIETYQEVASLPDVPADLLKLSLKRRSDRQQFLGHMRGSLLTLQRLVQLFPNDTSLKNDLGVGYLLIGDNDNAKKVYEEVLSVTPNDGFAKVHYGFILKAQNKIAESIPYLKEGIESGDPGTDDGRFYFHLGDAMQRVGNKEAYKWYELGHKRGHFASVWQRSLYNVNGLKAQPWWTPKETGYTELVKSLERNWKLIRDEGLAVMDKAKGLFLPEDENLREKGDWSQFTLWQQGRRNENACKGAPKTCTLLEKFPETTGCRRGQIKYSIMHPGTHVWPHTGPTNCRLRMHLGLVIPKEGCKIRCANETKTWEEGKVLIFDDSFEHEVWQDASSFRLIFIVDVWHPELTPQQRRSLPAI
Protocol: as §1, §2

[5] = target: T1, KDM4E; assay: SPE-MS KDM4E inhibition assay (demethylation of H3 1–15 K9me3); type: biochemical; conditions: Table 2, 10.0 μM H3 1–15 K9me3, n = 2, mean ± SD
Protocol: as §1, §2

[6] = Supporting Table S1, JMJD5 […], 2OG 2.0 μM, RPS6 128-148 2.0 μM, pH 7.5, 20 °C, n = 3, mean ± SD, read-out: IC50 JMJD5
[7] = supplementary CSV, read-out: IC50 JMJD5
[8] = Table 1, JMJD5 […], 2OG 2.0 μM, Fe(II) 2.0 μM, LAA 100 μM, RPS6 128–148 2.0 μM, pH 7.5, 20 °C, n = 3, mean ± SD, read-out: IC50 JMJD5
[9] = isolated recombinant JMJD5, SPE-MS
[10] = isolated recombinant JMJD5, SPE-MS, approximate values, read-out: IC50 for JMJD5 inhibition
[11] = Table 2, JMJD5 […], 2OG 2.0 μM, Fe(II) 2.0 μM, LAA 100 μM, RPS6 128–148 2.0 μM, n = 3, mean ± SD, read-out: IC50 JMJD5

Chain of human JMJD5 (Q8N371 whole entry, the tested form may be a part): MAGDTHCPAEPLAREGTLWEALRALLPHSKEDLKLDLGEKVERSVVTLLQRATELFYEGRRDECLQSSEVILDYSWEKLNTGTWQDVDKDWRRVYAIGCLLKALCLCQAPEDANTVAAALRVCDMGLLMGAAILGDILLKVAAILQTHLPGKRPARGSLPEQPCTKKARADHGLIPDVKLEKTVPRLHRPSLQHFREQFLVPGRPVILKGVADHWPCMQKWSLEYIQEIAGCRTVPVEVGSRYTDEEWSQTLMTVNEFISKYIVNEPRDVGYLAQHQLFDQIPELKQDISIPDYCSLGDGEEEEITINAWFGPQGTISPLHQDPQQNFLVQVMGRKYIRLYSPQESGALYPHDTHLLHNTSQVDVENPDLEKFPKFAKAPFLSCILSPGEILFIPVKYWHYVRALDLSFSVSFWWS

SMILES: Nc1ccccc1Nc1c(C(=O)O)ccnc1C(=O)O [Compound 29]
- IC50 [1, 6]: 39.6 µM
- IC50 [1, 7]: 39.6 ± 11.2 µM

SMILES: O=C(O)c1ccnc(C(=O)O)c1Nc1ccccc1F [Compound 25]
- IC50 [1, 6]: 46.9 ± 4.6 µM
- IC50 [1, 7]: 46.9 ± 4.6 µM

SMILES: O=C(O)c1cc(C(=O)O)c(F)cn1 [Compound 15, 5-fluoro-2,4-PDCA]
- IC50 [1, 8]: 4.5 ± 0.9 µM
- JMJD5 inhibition (in words) [1, 9]: inhibits
- IC50 [1, 10]: ~4.5 µM
- IC50 [1, 7]: 4.5 ± 0.9 µM

SMILES: O=C(O)c1ccnc(C(=O)O)c1NCCc1ccc(Cl)cc1 [Compound 31]
- IC50 [1, 6]: 10.3 ± 3.1 µM
- IC50 [1, 7]: 10.3 ± 3.1 µM

SMILES: COc1ccccc1Nc1c(C(=O)O)ccnc1C(=O)O [Compound 27]
- IC50 [1, 6]: 29.6 ± 4.3 µM
- IC50 [1, 7]: 29.6 ± 4.3 µM
- IC50 [2]: 19 µM

SMILES: COc1ccc(CNc2c(C(=O)O)ccnc2C(=O)O)cc1 [Compound 6]
- IC50 [1, 8]: 5.8 ± 2.9 µM
- IC50 [1, 7]: 5.8 ± 2.9 µM

SMILES: O=C(O)c1ccncc1NCCc1ccc(Cl)cc1 [Compound 32]
- IC50 [1, 6]: > 50 µM
- IC50 [1, 7]: > 50 µM

SMILES: O=C(O)c1cc(C(=O)O)c(NCc2ccc(C(F)(F)F)cc2)cn1 [Compound 20g]
- IC50 [3]: > 50 µM
- IC50 [4]: 1.2 ± 0.1 µM
- IC50 [5]: 6.2 ± 1.1 µM

SMILES: O=C(O)c1ccnc(C(=O)O)c1NCCc1ccccc1 [Compound 10]
- IC50 [1, 8]: 19.6 ± 3 µM
- IC50 [1, 7]: 19.6 ± 3 µM

SMILES: O=C(O)c1ccnc(C(=O)O)c1NCc1ccccc1 [Compound 3]
- IC50 [1, 8]: 9.5 ± 2.2 µM
- IC50 [1, 7]: 9.5 ± 2.2 µM

SMILES: O=C(O)c1ccnc(C(=O)O)c1NCc1ccc(C(F)(F)F)cc1 [Compound 7]
- IC50 [1, 8]: 10.4 ± 4.4 µM
- IC50 [1, 7]: 10.4 ± 4.4 µM

SMILES: O=C(O)c1ccncc1NCc1ccccc1 [Compound 4]
- IC50 [1, 8]: > 50 µM
- JMJD5 inhibition (in words) [1, 9]: does not inhibit JMJD5
- IC50 [1, 7]: > 50 µM

SMILES: O=C(O)c1ccnc(C(=O)O)c1NCCCc1ccccc1 [Compound 11]
- IC50 [1, 8]: 19.7 ± 3 µM
- IC50 [1, 7]: 19.7 ± 3 µM

SMILES: CC(Nc1cnc(C(=O)O)cc1C(=O)O)c1ccccc1 (stereo not shown) [Compound 20e]
- IC50 [1, 11]: 17.5 ± 2.5 µM
- IC50 [1, 10]: ~17.5 µM
- IC50 [3]: > 50 µM
- IC50 [4]: 5.9 ± 1.9 µM
- IC50 [5]: 22.7 ± 0.4 µM

SMILES: O=C(O)c1ccnc(C(=O)O)c1NCCCCc1ccccc1 [Compound 12]
- IC50 [1, 8]: 20.8 ± 0.2 µM
- IC50 [1, 7]: 20.8 ± 0.2 µM

SMILES: CCC(Nc1c(C(=O)O)ccnc1C(=O)O)c1ccccc1 (stereo not shown) [Compound 9]
- IC50 [1, 8]: 7.5 ± 2 µM
- IC50 [1, 10]: ~7.5 µM
- IC50 [1, 7]: 7.5 ± 2 µM

SMILES: O=C(O)c1cc(C(=O)O)c(NCCCCc2ccccc2)cn1 [Compound 20d, 5-((4-phenylbutyl)amino)pyridine-2,4-dicarboxylic acid]
- IC50 [1, 11]: 0.4 ± 0.2 µM
- IC50 [3]: 20.4 ± 0.8 µM
- IC50 [4]: 1.9 ± 0.2 µM
- IC50 [5]: 3.6 ± 0.7 µM

SMILES: O=C(O)c1ccnc(C(=O)O)c1NCC1CCCCC1 [Compound 5]
- IC50 [1, 8]: 25.3 ± 0.5 µM
- IC50 [1, 10]: ~25.3 µM
- IC50 [1, 7]: 25.3 ± 0.5 µM

SMILES: O=C(O)c1cc(C(=O)O)c(NCc2ccccc2)cn1 [Compound 20a, 5-(benzylamino)pyridine-2,4-dicarboxylic acid]
- IC50 [3]: > 50 µM
- IC50 [4]: 0.5 ± 0.2 µM
- IC50 [5]: 3.2 ± 1.6 µM

SMILES: O=C(O)c1ccnc(C(=O)O)c1Nc1ccccc1[N+](=O)[O-] [Compound 2]
- IC50 [1, 8]: 17.9 ± 2.6 µM
- IC50 [1, 10]: ~17.9 µM and ~16.8 µM
- IC50 [1, 7]: 17.9 ± 2.6 µM

SMILES: COC(=O)c1ccnc(C(=O)OC)c1 [dimethyl 2,4-PDCA, reference compound]
- IC50 [1, 6]: > 50 µM
- JMJD5 inhibition (in words) [1, 9]: does not inhibit isolated recombinant JMJD5
- JMJD5 inhibition (in words) ([1]; isolated recombinant JMJD5, SPE-MS, listed as dimethyl ester derivative of 1): does not inhibit isolated recombinant JMJD5 efficiently

SMILES: CC(Nc1c(C(=O)O)ccnc1C(=O)O)c1ccccc1 (stereo not shown) [Compound 8]
- IC50 [1, 8]: 3.1 ± 1.5 µM
- JMJD5 inhibition less efficient than 2,4-PDCA (1) ([1]; compared with 1): ~6 fold and ~ 5 fold
- JMJD5 inhibition more efficient than 3 ([1]; compared with 3): ~3 fold
- IC50 [1, 10]: ~3.1 µM
- IC50 [1, 7]: 3.1 ± 1.5 µM

SMILES: CC(Nc1cnccc1C(=O)O)c1ccccc1 (stereo not shown) [Compound 30]
- IC50 [1, 6]: > 50 µM
- IC50 [1, 7]: > 50 µM

SMILES: O=C(O)c1ccnc(C(=O)O)c1F [Compound 13, 3-fluoro-2,4-PDCA]
- IC50 [1, 8]: 27.2 ± 2.9 µM
- JMJD5 inhibition (in words) [1, 9]: did not efficiently inhibit JMJD5
- IC50 [1, 7]: 27.2 ± 2.9 µM
